Experimental data from PubChem BioAssay AID256 (DTP/NCI, 2004).
Values joined by “and” are separate entries in the source; they are usually repeats but may differ in a detail not shown here. Equal entries are not always repeated. Toxic doses and inconclusive results are not listed. Rule for the calls: active = survival T/C of 150% or more; inactive = T/C below 125% in these data.

System: CD2F1 mice, L1210 leukemia ip, survival T/C
Test: NCI In Vivo Anticancer Drug Screen. Data for tumor model L1210 Leukemia (intraperitoneal) in CD2F1 (CDF1) mice
Details: higher = longer survival
Summary of the method: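 In this screen, transplantable tumors were grown in mice given either the compound or its vehicle. Results were expressed as the treated measurement relative to the control measurement.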

[1] = endpoint: mean survival time, dose: 100.0 mg/kg/injection, schedule: Q01DX009 (ip), vehicle: saline with Tween-80
[2] = endpoint: mean survival time, dose: 200.0 mg/kg/injection, schedule: Q01DX009 (ip), vehicle: saline with Tween-80
[3] = endpoint: mean survival time, dose: 400.0 mg/kg/injection, schedule: Q01DX009 (ip), vehicle: saline with Tween-80
[4] = endpoint: mean survival time, dose: 100.0 mg/kg/injection, schedule: Q04DX003 (ip), vehicle: saline with Tween-80
[5] = endpoint: mean survival time, dose: 200.0 mg/kg/injection, schedule: Q04DX003 (ip), vehicle: saline with Tween-80
[6] = endpoint: mean survival time, dose: 400.0 mg/kg/injection, schedule: Q04DX003 (ip), vehicle: saline with Tween-80
[7] = endpoint: mean survival time, dose: 50.0 mg/kg/injection, schedule: Q04DX003 (ip), vehicle: Klucel (hydroxypropylcellulose) (HPC)
[8] = endpoint: mean survival time, dose: 25.0 mg/kg/injection, schedule: Q01DX009 (ip), vehicle: other
[9] = endpoint: mean survival time, dose: 50.0 mg/kg/injection, schedule: Q01DX009 (ip), vehicle: other
[10] = endpoint: mean survival time, dose: 100.0 mg/kg/injection, schedule: Q01DX009 (ip), vehicle: other
[11] = endpoint: mean survival time, dose: 6.25 mg/kg/injection, schedule: Q01DX009 (ip), vehicle: saline with Tween-80
[12] = endpoint: mean survival time, dose: 12.5 mg/kg/injection, schedule: Q01DX009 (ip), vehicle: saline with Tween-80
[13] = endpoint: mean survival time, dose: 25.0 mg/kg/injection, schedule: Q01DX009 (ip), vehicle: saline with Tween-80
[14] = endpoint: mean survival time, dose: 100.0 mg/kg/injection, schedule: Q01DX001 (ip), vehicle: saline with Tween-80
[15] = endpoint: mean survival time, dose: 200.0 mg/kg/injection, schedule: Q01DX001 (ip), vehicle: saline with Tween-80
[16] = endpoint: mean survival time, dose: 400.0 mg/kg/injection, schedule: Q01DX001 (ip), vehicle: saline with Tween-80

Measured: T/C

CC1=COC2CCCCC2O1 (centres undefined) (tested in a mixture with another compound)
inactive: [1] 95 % of control | [2] 97 % of control | [3] 91 % of control

CC(C)c1ccc2ccccc2c1
inactive: [4] 91 % of control | [5] 87 % of control | [6] 86 % of control

C=C(C)C12CC(COC(=O)c3ccccc3)C34OC5(OC1C3C1OC1(CO)C(O)C1(O)C(OC(=O)c3ccccc3)C(C)C(C(C)CCCCCCC5O)C14)O2 (centres undefined)
inactive: endpoint: mean survival time, dose: 1.5 micrograms/kg/injection, schedule: Q01DX009 (ip), vehicle: saline 103 % of control | endpoint: mean survival time, dose: 3.1 micrograms/kg/injection, schedule: Q01DX009 (ip), vehicle: saline 98 % of control | endpoint: mean survival time, dose: 6.2 micrograms/kg/injection, schedule: Q01DX009 (ip), vehicle: saline 97 % of control | endpoint: mean survival time, dose: 12.5 micrograms/kg/injection, schedule: Q01DX009 (ip), vehicle: saline 98 % of control

COC(=O)C1C2OC(C(Br)C2Br)C1C(=O)OC (centres undefined)
inactive: [1] 100 % of control | [4] 97 % of control | [2] 92 % of control | [5] 93 % of control | [3] 100 % of control | [6] 92 % of control

CC12CCC(O)CC1CCC1C2CCC2(C)C(C3=CC(=O)OC3)CCC12O (centres undefined)
inactive: endpoint: mean survival time, dose: 12.5 mg/kg/injection, schedule: Q04DX003 (ip), vehicle: Klucel (hydroxypropylcellulose) (HPC) 92 % of control | endpoint: mean survival time, dose: 25.0 mg/kg/injection, schedule: Q04DX003 (ip), vehicle: Klucel (hydroxypropylcellulose) (HPC) 100 % of control | [7] 92 % of control

CCOC(=O)c1c(C)[nH]c(C(=O)C(N=O)C(=O)OCC)c1C (centres undefined)
inactive: [4] 101 % of control | [5] 97 % of control | [6] 97 % of control

O=C1CCN2CCc3c([nH]c4ccccc34)C2C1 (centres undefined)
inactive: [4] 101 % of control | [5] 101 % of control | [6] 109 % of control

CC1=C(O)C(=O)OC1c1ccc(C)cc1 (centres undefined)
inactive: endpoint: mean survival time, dose: 12.5 mg/kg/injection, schedule: Q01DX009 (ip), vehicle: other 101 % of control | [8] 98 % of control | [9] 95 % of control | [10] 98 % of control | endpoint: mean survival time, dose: 200.0 mg/kg/injection, schedule: Q01DX009 (ip), vehicle: other 104 % of control

CC1C=CC(C)c2c(-c3ccccc3)oc(-c3ccccc3)c21 (centres undefined)
inactive: [1] 88 % of control | [4] 100 % of control | [2] 86 % of control | [5] 97 % of control | [3] 91 % of control | [6] 96 % of control

NN(C(=O)c1ccc(Cl)cc1)c1ccccc1
inactive: [4] 95 % of control | [5] 92 % of control | [6] 97 % of control

Nc1ccc2ncccc2c1
inactive: [8] 93 % of control | [9] 95 % of control | [10] 91 % of control

CCCCCCCC(=O)Nc1ccc(C)cc1C
inactive: [1] 91 % of control | [2] 98 % of control | [3] 91 % of control

CCCCCCN=C(N)NC(=O)OC
inactive: [11] 87 % of control | [12] 100 % of control | [13] 100 % of control

NC(=O)Cc1c(Cl)n(-c2ccccc2)c2ccccc12
inactive: [7] 95 % of control | endpoint: mean survival time, dose: 100.0 mg/kg/injection, schedule: Q04DX003 (ip), vehicle: Klucel (hydroxypropylcellulose) (HPC) 102 % of control | endpoint: mean survival time, dose: 200.0 mg/kg/injection, schedule: Q04DX003 (ip), vehicle: Klucel (hydroxypropylcellulose) (HPC) 95 % of control

COc1cccc(Sc2ccc([N+](=O)[O-])c3no[n+]([O-])c23)c1
inactive: endpoint: median survival time, dose: 1.85 mg/kg/injection, schedule: Q01DX005 (ip), vehicle: saline with Tween-80 102 % of control | endpoint: median survival time, dose: 1.87 mg/kg/injection, schedule: Q01DX005 (ip), vehicle: saline with Tween-80 106 % of control | endpoint: median survival time, dose: 3.75 mg/kg/injection, schedule: Q01DX005 (ip), vehicle: saline with Tween-80 108 % of control and 109 % of control | endpoint: median survival time, dose: 7.5 mg/kg/injection, schedule: Q01DX005 (ip), vehicle: saline with Tween-80 107 % of control and 111 % of control | endpoint: median survival time, dose: 15.0 mg/kg/injection, schedule: Q01DX005 (ip), vehicle: saline with Tween-80 108 % of control | endpoint: median survival time, dose: 15.0 mg/kg/injection, schedule: Q01DX009 (ip), vehicle: saline with Tween-80 102 % of control and 104 % of control | endpoint: median survival time, dose: 30.0 mg/kg/injection, schedule: Q01DX005 (ip), vehicle: saline with Tween-80 102 % of control and 109 % of control | endpoint: median survival time, dose: 30.0 mg/kg/injection, schedule: Q01DX009 (ip), vehicle: saline with Tween-80 101 % of control and 103 % of control | endpoint: median survival time, dose: 60.0 mg/kg/injection, schedule: Q01DX009 (ip), vehicle: saline with Tween-80 96 % of control and 108 % of control | endpoint: median survival time, dose: 120.0 mg/kg/injection, schedule: Q01DX009 (ip), vehicle: saline with Tween-80 100 % of control

CCS(=O)(=O)c1c(C(N)=O)ncn1C1OC(CO)C(O)C1O (centres undefined)
inactive: endpoint: median survival time, dose: 9.13 mg/kg/injection, schedule: Q01DX005 (ip), vehicle: saline 91 % of control | endpoint: median survival time, dose: 18.25 mg/kg/injection, schedule: Q01DX005 (ip), vehicle: saline 102 % of control | endpoint: median survival time, dose: 36.5 mg/kg/injection, schedule: Q01DX005 (ip), vehicle: saline 102 % of control | endpoint: median survival time, dose: 73.0 mg/kg/injection, schedule: Q01DX005 (ip), vehicle: saline 102 % of control | endpoint: median survival time, dose: 146.0 mg/kg/injection, schedule: Q01DX005 (ip), vehicle: saline 100 % of control

CCCCNCCC(SSSC(CCNCCCC)c1ccc(Cl)cc1)c1ccc(Cl)cc1 (centres undefined)
inactive: [11] 101 % of control | [12] 95 % of control | [13] 95 % of control

O=C(C=C(C(F)(F)F)C(F)(F)F)c1ccccc1[N+](=O)[O-]
inactive: endpoint: mean survival time, dose: 12.5 mg/kg/injection, schedule: Q04DX003 (ip), vehicle: other 103 % of control | endpoint: mean survival time, dose: 25.0 mg/kg/injection, schedule: Q04DX003 (ip), vehicle: other 109 % of control

O=c1[nH]nc(-c2cccc3ccccc23)o1
inactive: [14] 96 % of control | [15] 99 % of control | [16] 108 % of control

CCCCOB(OCCCC)OCCCC
inactive: [4] 98 % of control | [5] 93 % of control | [6] 103 % of control

NS(=O)(=O)c1cccc([N+](=O)[O-])c1
inactive: [14] 95 % of control | [15] 92 % of control | [16] 97 % of control

CSc1nccc2c1nnn2C1OC(CO)C(O)C1O (centres undefined)
inactive: endpoint: mean survival time, dose: 12.5 mg/kg/injection, schedule: Q01DX005 (ip), vehicle: other 101 % of control | endpoint: mean survival time, dose: 25.0 mg/kg/injection, schedule: Q01DX005 (ip), vehicle: other 101 % of control | endpoint: mean survival time, dose: 50.0 mg/kg/injection, schedule: Q01DX005 (ip), vehicle: other 97 % of control | endpoint: mean survival time, dose: 100.0 mg/kg/injection, schedule: Q01DX005 (ip), vehicle: other 101 % of control | endpoint: mean survival time, dose: 200.0 mg/kg/injection, schedule: Q01DX005 (ip), vehicle: other 100 % of control

CSC(=S)N(C)/N=C/c1cccc(C)n1
inactive: [4] 96 % of control | [5] 102 % of control | [6] 102 % of control

C=CCc1ccc(OC(=O)Nc2ccc(S(=O)(=O)N(CCC)CCC)cc2)c(OC)c1
inactive: endpoint: mean survival time, dose: 100.0 mg/kg/injection, schedule: Q01DX001 (ip), vehicle: saline 94 % of control | endpoint: mean survival time, dose: 200.0 mg/kg/injection, schedule: Q01DX001 (ip), vehicle: saline 94 % of control | endpoint: mean survival time, dose: 400.0 mg/kg/injection, schedule: Q01DX001 (ip), vehicle: saline 94 % of control

CC(=O)OC(C(=O)N(c1ccccc1)c1ccccc1)c1ccccc1 (centres undefined)
inactive: [4] 100 % of control | [5] 94 % of control | [6] 108 % of control
